Measured values as given in patent publication US10550073B2, “Benzamide derivative” (CSPC ZHONGQI PHARMACEUTICAL TECHNOLOGY (SHIJIAZHUANG) CO., …, priority 2015, dated 2020).

Tests used:
TNF-α = experiment: In vitro cell experiment: LPS-stimulated TNF-α release in THP-1 cells (ELISA); format: cell-based; settings: Homo sapiens; TNF-α in supernatant of THP-1 cells, compound 2 h then LPS 10 μg/ml 2 h
From the text: I. In Vitro Cell Experiment
Cells: human monocytic leukemia THP-1 cells (obtained from the Shanghai Cell Bank of Chinese Academy of Sciences).
Lipopolysaccharides: from Escherichia coli O55: B5, L2880 (Sigma).
Kit: Human TNF-α Elisa MAX Deluxe Set, 430206 (Biolegend)

p38a = p38a (Homo sapiens (Human), UniProt Q16539); experiment: Assay of p38 kinase activity (fluorescence, peptide substrate); format: biochemical; settings: 40 nM p38a, 100 μM ATP, 90 minutes
Chain of p38a (Q16539 whole entry): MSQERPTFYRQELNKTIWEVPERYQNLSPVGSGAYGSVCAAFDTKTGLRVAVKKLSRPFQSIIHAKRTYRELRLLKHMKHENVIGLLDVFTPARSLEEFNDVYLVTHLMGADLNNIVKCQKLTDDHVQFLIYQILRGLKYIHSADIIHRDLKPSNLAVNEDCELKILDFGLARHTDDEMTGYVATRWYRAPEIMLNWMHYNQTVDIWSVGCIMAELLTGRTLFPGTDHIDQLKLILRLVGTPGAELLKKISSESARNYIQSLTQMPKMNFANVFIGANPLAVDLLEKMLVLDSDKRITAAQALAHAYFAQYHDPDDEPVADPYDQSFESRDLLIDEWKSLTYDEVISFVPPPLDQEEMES
Description: II. Assay of p38 Kinase Activity
Experimental Method: 40 nM p38a was added into a reaction buffer, which include 20 mM HEPES (4-hydroxyethylpiperazine ethanesulfonic acid), 5 mM MgCl2 and 1 mM DTT (dithiothreitol) at pH 7.4. 40 μM phosphorylated peptide substrate was added, followed by different concentrations of drugs and 100 μM ATP (adenosine triphosphate), and reacted for 90 minutes in dark. […] The IC50 values of the compounds were obtained according to the fluorescence values.

CYP450, 2C9 enzymes = CYP450, 2C9 enzymes (Homo sapiens (Human), UniProt P11712); experiment: CYP450 enzyme inhibition test in human liver microsome; format: in vitro ADME; settings: CYP450 2C9, LC-MS/MS
Chain of CYP450, 2C9 enzymes (P11712 whole entry): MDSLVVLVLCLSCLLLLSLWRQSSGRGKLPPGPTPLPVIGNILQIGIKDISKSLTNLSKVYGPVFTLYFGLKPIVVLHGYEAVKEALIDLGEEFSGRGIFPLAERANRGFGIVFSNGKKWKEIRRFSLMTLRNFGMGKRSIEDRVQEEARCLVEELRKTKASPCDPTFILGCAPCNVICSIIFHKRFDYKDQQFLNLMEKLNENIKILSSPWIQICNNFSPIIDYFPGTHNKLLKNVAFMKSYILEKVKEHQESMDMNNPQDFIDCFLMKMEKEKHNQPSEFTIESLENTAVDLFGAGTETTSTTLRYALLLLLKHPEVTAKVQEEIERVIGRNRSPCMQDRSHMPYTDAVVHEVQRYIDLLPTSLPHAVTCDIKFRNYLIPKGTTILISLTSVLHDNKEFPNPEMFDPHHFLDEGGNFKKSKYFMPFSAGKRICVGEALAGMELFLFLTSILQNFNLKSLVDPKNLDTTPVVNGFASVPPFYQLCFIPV

SMILES | IC50 (TNF-α) | IC50 (p38a) | IC50 (CYP450, 2C9 enzymes)
Cc1c(F)cc(C(=O)NC2CC2)cc1-c1ccc(C(=O)NC2CCCCC2)nn1 [Example 5, N-cyclohexyl-6-(5-(cyclopropylcarbamoyl)-3-fluoro-2-methylphenyl) pyridazin-3-carboxamide] | < 5 nM | < 5 nM | > 50000 nM
CCCCCNC(=O)c1ccc(-c2cc(C(=O)NC3CC3)cc(F)c2C)nc1 [Example 9, 6-(5-(cyclopropylcarbamoyl)-3-fluoro-2-methylphenyl)-N-pentylnicotinamide] | 5 to 10 nM | 5 to 10 nM | –
Cc1c(F)cc(C(=O)NC2CC2)cc1-c1ccc(C(=O)NCC(C)C)nc1 [Example 15, 5-(5-(cyclopropylcarbamoyl)-3-fluoro-2-methylphenyl)-N-isobutylpyridin-2-formamide] | < 5 nM | < 5 nM | –
Cc1c(F)cc(C(=O)NC2CC2)cc1-c1ccc(C(=O)N(C)CC(C)C)nc1 [Example 16, 5-(5-(cyclopropylcarbamoyl)-3-fluoro-2-methylphenyl)-N-isobutyl-N-methylpyridin-2-formamide] | < 5 nM | < 5 nM | > 50000 nM
Cc1c(F)cc(C(=O)NC2CC2)cc1-c1ccc(C(=O)N(C)C2CCCC2)cc1 [Example 23, N^4′-cyclopentyl-N^3-cyclopropyl-5-fluoro-N^4′,6-dimethyl-[1,1′-biphenyl]-3,4′-dicarboxamide] | 5 to 10 nM | – | –
Cc1c(F)cc(C(=O)NC2CC2)cc1-c1ccc(C(=O)NC2CCCCC2)cc1 [Example 24, N^4′-cyclohexyl-N^3-cyclopropyl-5-fluoro-6-methyl-[1,1′-biphenyl]-3,4′-dicarboxamide] | 5 to 10 nM | – | –
Cc1c(F)cc(C(=O)NC2CC2)cc1-c1ccc(C(=O)N(C)C2CCCCC2)cc1 [Example 25, N^4′-cyclohexyl-N^3-cyclopropyl-5-fluoro-N^4′,6-dimethyl-[1,1′-biphenyl]-3,4′-dicarboxamide] | < 5 nM | 5 to 10 nM | –
Cc1c(F)cc(C(=O)NC2CC2)cc1-c1ccc(C(=O)NC2CCCC2)c(F)c1 [Example 32, N^4′-cyclopentyl-N^3-cyclopropyl-3′,5-difluoro-6-methyl-[1,1′-biphenyl]-3,4′-dicarboxamide] | < 5 nM | < 5 nM | –
Cc1c(F)cc(C(=O)NC2CC2)cc1-c1ccc(C(=O)N(C)C2CCCC2)c(F)c1 [Example 33, N^4′-cyclopentyl-N^3-cyclopropyl-3′,5-difluoro-N^4′,6-dimethyl-[1,1′-biphenyl]-3,4′-dicarboxamide] | < 5 nM | – | –
CCC(C)(C)NC(=O)c1ccc(-c2cc(C(=O)NC3CC3)cc(F)c2C)cc1N [Example 41, 3′-amino-N^3-cyclopropyl-5-fluoro-6-methyl-N^4′-(tertpentyl)-[1,1′-biphenyl]-3,4′-dicarboxamide] | < 5 nM | – | –
Cc1c(F)cc(C(=O)NC2CC2)cc1-c1ccc(C(=O)NCC(C)(C)C)c(N)c1 [Example 42, 3′-amino-N^3-cyclopropyl-5-fluoro-6-methyl-N^4′-neo pentyl-[1,1′-biphenyl]-3,4′ -dicarboxamide] | 5 to 10 nM | – | > 50000 nM
Cc1c(F)cc(C(=O)NC2CC2)cc1-c1ccc(NC(=O)C2CCCCC2)c(F)c1 [Example 47, 4′-(cyclohexanecarboxamido)-N-cyclopropyl-3′,5-difluoro-6-methyl-[1,1′-biphenyl]-3-carboxamide] | 5 to 10 nM | – | –
Cc1cc(-c2cc(C(=O)NC3CC3)cc(F)c2C)ccc1NC(=O)NC1CCCC1 [Example 50, 4′-(3-cyclopentylureido)-N-cyclopropyl-5-fluoro-3′,6-dimethyl-[1,1′-biphenyl]-3-carboxamide] | < 5 nM | – | –
Cc1c(F)cc(C(=O)NC2CC2)cc1-c1ccc(C(=O)N2CCCCC2)s1 [Example 55, N-cyclopropyl-3-fluoro-4-methyl-5-(5-(piperidin-1-carbonyl)thiophen-2-yl) benzamide] | 5 to 10 nM | 5 to 10 nM | –
C=CCNC(=O)c1cc(F)c(C)c(-c2ccc(C(=O)NC3CCCCC3)nn2)c1 [Example 80, 6-(5-(allylcarbamoyl)-3-fluoro-2-methylphenyl)-N-cyclohexylpyridazin-3-carboxamide] | 5 to 10 nM | < 5 nM | –

Further lines, results first:

IC50 (TNF-α) | IC50 (p38a) | IC50 (CYP450, 2C9 enzymes) | SMILES
5 to 10 nM | < 5 nM | > 50000 nM | Cc1c(F)cc(C(=O)NC2CC2)cc1-c1ccc(C(=O)N(C)CC(C)C)nn1 [Example 3]
< 5 nM | < 5 nM | > 50000 nM | Cc1c(F)cc(C(=O)NC2CC2)cc1-c1ccc(C(=O)NC2CCCC2)nn1 [Example 4]
< 5 nM | – | – | Cc1c(F)cc(C(=O)NC2CC2)cc1-c1ccc(C(=O)NC2CCCCC2)cn1 [Example 10, N-cyclohexyl-6-(5-(cyclopropylcarbamoyl)-3-fluoro-2-methylphenyl) nicotinamide]
5 to 10 nM | – | – | Cc1c(F)cc(C(=O)NC2CC2)cc1-c1ccc(C(=O)N2CCCCCC2)cn1 [Example 14]
< 5 nM | – | – | Cc1c(F)cc(C(=O)NC2CC2)cc1-c1ccc(C(=O)NC2CCCC2)nc1 [Example 17, N-cyclopentyl-5-(5-(cyclopropylcarbamoyl)-3-fluoro-2-methylphenyl)pyridin-2-foramamide]
5 to 10 nM | – | – | CCCN(CCC)C(=O)c1ccc(-c2cc(C(=O)NC3CC3)cc(F)c2C)cc1 [Example 20, N^3-cyclopropyl-5-fluoro-6-methyl-N^4′,N^4′-dipropyl-[1,1′-biphenyl]-3,4′-dicarboxamide]
< 5 nM | – | – | Cc1c(F)cc(C(=O)NC2CC2)cc1-c1ccc(C(=O)NC2CCCC2)cc1 [Example 22]
5 to 10 nM | – | – | Cc1c(F)cc(C(=O)NC2CC2)cc1-c1ccc(C(=O)N2CCC(C)CC2)cc1 [Example 26, N-cyclopropyl-5-fluoro-6-methyl-4′-(4-methylpiperidin-1-carbonyl)-[1,1′-biphenyl]-3-carboxamide]
5 to 10 nM | – | – | Cc1c(F)cc(C(=O)NC2CC2)cc1-c1ccc(C(=O)N2CCCCCC2)cc1 [Example 28, 4′-(azepane-1-carbonyl)-N-cyclopropyl-5-fluoro-6-methyl-[1,1′-biphenyl]-3-carboxamide]
< 5 nM | < 5 nM | – | Cc1c(F)cc(C(=O)NC2CC2)cc1-c1ccc(C(=O)NCC(C)C)c(F)c1 [Example 30, N^3-cyclopropyl-3′,5-difluoro-N^4′-isobutyl-6-methyl-[1,1′-biphenyl]-3,4′-dicarboxamide]
< 5 nM | < 5 nM | – | Cc1c(F)cc(C(=O)NC2CC2)cc1-c1ccc(C(=O)N(C)CC(C)C)c(F)c1 [Example 31, N^3-cyclopropyl-3′,5-difluoro-N^4′-isobutyl-N^4′,6-dimethyl-[1,1′-biphenyl]-3,4′-dicarboxamide]
< 5 nM | 5 to 10 nM | > 50000 nM | Cc1cc(-c2cc(C(=O)NC3CC3)cc(F)c2C)ccc1C(=O)NCC(C)C [Example 44, N^3-cyclopropyl-5-fluoro-N^4′-isobutyl-3′,6-dimethyl-[1,1′-biphenyl]-3,4′-dicarboxamide]
< 5 nM | 5 to 10 nM | – | Cc1c(F)cc(C(=O)NC2CC2)cc1-c1ccc2nc(NCC(C)C)sc2c1 [Example 51, N-cyclopropyl-3-fluoro-5-(2-(isobutylamino)benzo[d]thiazol-6-yl)-4-methylbenzamide]
5 to 10 nM | 5 to 10 nM | – | CCCCNc1nc2ccc(-c3cc(C(=O)NC4CC4)cc(F)c3C)cc2s1 [Example 52, 3-(2-(butylamino)benzo [d]thiazol-6-yl)-N-cyclopropyl-5-fluoro-4-methylbenzamide]
5 to 10 nM | – | – | Cc1c(F)cc(C(=O)NC2CC2)cc1-c1ccc2nc(NC3CCCC3)sc2c1 [Example 54, 3-(2-(cyclopentylamino)benzo[d]thiazol-6-yl)-N-cyclopropyl-5-fluoro-4-methylbenzamide]
5 to 10 nM | 5 to 10 nM | – | Cc1c(F)cc(C(=O)NC2CC2)cc1-c1ccc(C(=O)N2CCC(C)CC2)s1 [Example 56, N-cyclopropyl-3-fluoro-4-methyl-5-(5-(4-methylpiperidin-1-carbonyl)thiophen-2-yl)benzamide]
< 5 nM | < 5 nM | > 50000 nM | CCC(C)NC(=O)c1ccc(-c2cc(C(=O)NC3CC3)cc(F)c2C)nn1 (stereo not drawn) [Example 58, 6-(5-(cyclopropylcarbamoyl)-3-fluoro-2-methylphenyl)-N-(sec-butyl)pyridazin-3-carboxamide]
5 to 10 nM | < 5 nM | – | Cc1c(F)cc(C(=O)NC2CC2)cc1-c1ccc(C(=O)NCCC(C)C)nn1 [Example 60, 6-(5-(cyclopropylcarbamoyl)-3-fluoro-2-methylphenyl)-N-isopentylpyridazin-3-carboxamide]
5 to 10 nM | < 5 nM | – | Cc1c(F)cc(C(=O)NC2CC2)cc1-c1ccc(C(=O)N(C)C2CCCCC2)nn1 [Example 62]
5 to 10 nM | < 5 nM | – | C=CCNC(=O)c1cc(F)c(C)c(-c2ccc(C(=O)NC3CCCC3)nn2)c1 [Example 79, 6-(5-(allylcarbamoyl)-3-fluoro-2-methylphenyl)-N-cyclopentylpyridazin-3-carboxamide]
5 to 10 nM | – | – | C=CCNC(=O)c1cc(F)c(C)c(-c2ccc(C(=O)NCC(C)(C)C)cn2)c1 [Example 81, 6-(5-(allylcarbamoyl)-3-fluoro-2-methylphenyl)-N-neopentylnicotinamide]
